Assay results reported in ChEMBL document CHEMBL5584201, “Amphiphilic tribasic galactosamines potentiate rifampicin in Gram-negative bacteria at low Mg++/Ca++concentrations” (Bioorg Med Chem Lett, 2024).
In brackets after ≈: the same amount, converted by molar mass. Activity calls are given as the source filed them. No cut-off for these calls is given here.

How the values were obtained:
Acinetobacter baumannii [1] = test: Antibacterial activity against Acinetobacter baumannii 92247 in high concentration of Ca++ and Mg++ containing media by Mueller-Hinton broth based assay; type: functional
[2] = Cytotoxicity against human HepG2 cells assessed as cell viability at 9 uM relative to control; type: toxicity, cell-based; conditions: read-out: Activity
Acinetobacter baumannii [3] = test: Potentiation of rifampicin-induced antibacterial activity against Acinetobacter baumannii ATCC 17978 assessed as fold change in rifampicin MIC in low salt containing media by Mueller-Hinton broth based assay; type: functional
Escherichia coli [4] = test: Potentiation of rifampicin-induced antibacterial activity against Escherichia coli ATCC 25922 assessed as rifampicin MIC at 16 microg/ml in high concentration of Ca++ and Mg++ containing media by Mueller-Hinton broth based assay; type: functional; conditions: dose 16 µg/ml
Escherichia coli [5] = test: Potentiation of rifampicin-induced antibacterial activity against Escherichia coli […] assessed as rifampicin MIC at 2 to 8 microg/ml in high concentration of Ca++ and Mg++ containing media by Mueller-Hinton broth based assay; type: functional; conditions: dose 2-8 µg/ml
Pseudomonas aeruginosa [6] = test: Potentiation of rifampicin-induced antibacterial activity against Pseudomonas aeruginosa PAO1 assessed as fold change in rifampicin MIC in low salt containing media by Mueller-Hinton broth based assay; type: functional
Acinetobacter baumannii [7] = test: Potentiation of rifampicin-induced antibacterial activity against Acinetobacter baumannii ATCC 17978 assessed as rifampicin MIC in low salt containing media by Mueller-Hinton broth based assay; type: functional
Pseudomonas aeruginosa [8] = test: Potentiation of rifampicin-induced antibacterial activity against Pseudomonas aeruginosa PAO1 assessed as rifampicin MIC in low salt containing media by Mueller-Hinton broth based assay; type: functional
Escherichia coli [9] = test: Potentiation of rifampicin-induced antibacterial activity against Escherichia coli ATCC 25922 assessed as rifampicin MIC in low salt containing media by Mueller-Hinton broth based assay; type: functional
Escherichia coli [10] = test: Potentiation of rifampicin-induced antibacterial activity against Escherichia coli ATCC 25922 assessed as rifampicin MIC at 2 to 8 microg/ml in high concentration of Ca++ and Mg++ containing media by Mueller-Hinton broth based assay; type: functional; conditions: dose 2-8 µg/ml
Acinetobacter baumannii [11] = test: Potentiation of rifampicin-induced antibacterial activity against Acinetobacter baumannii 92247 assessed as fold change in rifampicin MIC at 16 microg/ml in high concentration of Ca++ and Mg++ containing media by Mueller-Hinton broth based assay; type: functional; conditions: dose 16 µg/ml
Escherichia coli [12] = test: Potentiation of rifampicin-induced antibacterial activity against Escherichia coli ATCC 25922 assessed as fold change in rifampicin MIC at 2 to 8 microg/ml in high concentration of Ca++ and Mg++ containing media by Mueller-Hinton broth based assay; type: functional; conditions: dose 2-8 µg/ml
Escherichia coli [13] = test: Potentiation of rifampicin-induced antibacterial activity against Escherichia coli […] assessed as fold change in rifampicin MIC at 2 to 8 microg/ml in high concentration of Ca++ and Mg++ containing media by Mueller-Hinton broth based assay; type: functional; conditions: dose 2-8 µg/ml
Acinetobacter baumannii [14] = test: Potentiation of rifampicin-induced antibacterial activity against Acinetobacter baumannii 92247 assessed as fold change in rifampicin MIC at 2 to 8 microg/ml in high concentration of Ca++ and Mg++ containing media by Mueller-Hinton broth based assay; type: functional; conditions: dose 2-8 µg/ml
Escherichia coli [15] = test: Antibacterial activity against Escherichia coli ATCC 25922 in high concentration of Ca++ and Mg++ containing media by Mueller-Hinton broth based assay; type: functional
Acinetobacter baumannii [16] = test: Potentiation of rifampicin-induced antibacterial activity against Acinetobacter baumannii ATCC 17978 assessed as fold change in rifampicin MIC at 16 microg/ml in high concentration of Ca++ and Mg++ containing media by Mueller-Hinton broth based assay; type: functional; conditions: dose 16 µg/ml
Escherichia coli [17] = test: Antibacterial activity against Escherichia coli […] in high concentration of Ca++ and Mg++ containing media by Mueller-Hinton broth based assay; type: functional
Acinetobacter baumannii [18] = test: Potentiation of rifampicin-induced antibacterial activity against Acinetobacter baumannii 92247 assessed as rifampicin MIC at 2 to 8 microg/ml in high concentration of Ca++ and Mg++ containing media by Mueller-Hinton broth based assay; type: functional; conditions: dose 2-8 µg/ml
Escherichia coli [19] = test: Potentiation of rifampicin-induced antibacterial activity against Escherichia coli […] assessed as fold change in rifampicin MIC at 16 microg/ml in high concentration of Ca++ and Mg++ containing media by Mueller-Hinton broth based assay; type: functional; conditions: dose 16 µg/ml
Acinetobacter baumannii [20] = test: Potentiation of rifampicin-induced antibacterial activity against Acinetobacter baumannii 92247 assessed as rifampicin MIC at 16 microg/ml in high concentration of Ca++ and Mg++ containing media by Mueller-Hinton broth based assay; type: functional; conditions: dose 16 µg/ml
Escherichia coli [21] = test: Potentiation of rifampicin-induced antibacterial activity against Escherichia coli ATCC 25922 assessed as fold change in rifampicin MIC at 16 microg/ml in high concentration of Ca++ and Mg++ containing media by Mueller-Hinton broth based assay; type: functional; conditions: dose 16 µg/ml
Acinetobacter baumannii [22] = test: Antibacterial activity against Acinetobacter baumannii ATCC 17978 in high concentration of Ca++ and Mg++ containing media by Mueller-Hinton broth based assay; type: functional
Acinetobacter baumannii [23] = test: Antibacterial activity against Acinetobacter baumannii ATCC 17978 in low salt containing media by Mueller-Hinton broth based assay; type: functional
Acinetobacter baumannii [24] = test: Potentiation of rifampicin-induced antibacterial activity against Acinetobacter baumannii ATCC 17978 assessed as rifampicin MIC at 16 microg/ml in high concentration of Ca++ and Mg++ containing media by Mueller-Hinton broth based assay; type: functional; conditions: dose 16 µg/ml
Pseudomonas aeruginosa [25] = test: Antibacterial activity against Pseudomonas aeruginosa PAO1 in low salt containing media by Mueller-Hinton broth based assay; type: functional
Escherichia coli [26] = test: Antibacterial activity against Escherichia coli ATCC 25922 in low salt containing media by Mueller-Hinton broth based assay; type: functional
[27] = Cytotoxicity against HEK293 cells assessed as cell viability at 9 uM relative to control; type: toxicity, cell-based; conditions: human, read-out: Activity
Acinetobacter baumannii [28] = test: Potentiation of rifampicin-induced antibacterial activity against Acinetobacter baumannii ATCC 17978 assessed as rifampicin MIC at 2 to 8 microg/ml in high concentration of Ca++ and Mg++ containing media by Mueller-Hinton broth based assay; type: functional; conditions: dose 2-8 µg/ml
Escherichia coli [29] = test: Potentiation of rifampicin-induced antibacterial activity against Escherichia coli […] assessed as rifampicin MIC at 16 microg/ml in high concentration of Ca++ and Mg++ containing media by Mueller-Hinton broth based assay; type: functional; conditions: dose 16 µg/ml
Escherichia coli [30] = test: Potentiation of rifampicin-induced antibacterial activity against Escherichia coli ATCC 25922 assessed as fold change in rifampicin MIC in low salt containing media by Mueller-Hinton broth based assay; type: functional
Acinetobacter baumannii [31] = test: Potentiation of rifampicin-induced antibacterial activity against Acinetobacter baumannii ATCC 17978 assessed as fold change in rifampicin MIC at 2 to 8 microg/ml in high concentration of Ca++ and Mg++ containing media by Mueller-Hinton broth based assay; type: functional; conditions: dose 2-8 µg/ml
Acinetobacter baumannii [32] = test: Potentiation of rifampicin-induced antibacterial activity against multidrug resistant Acinetobacter baumannii LAC-4 in low salt containing media by Mueller-Hinton broth based assay; type: functional, organism-based
Acinetobacter baumannii [33] = test: Potentiation of rifampicin-induced antibacterial activity against multidrug resistant Acinetobacter baumannii AB031 at 1/4 MIC in low salt containing media by Mueller-Hinton broth based assay; type: functional, organism-based
Escherichia coli [34] = test: Potentiation of rifampicin-induced antibacterial activity against Escherichia coli clinical isolate 107115 at 1/4 MIC in low salt containing media by Mueller-Hinton broth based assay; type: functional, organism-based
Acinetobacter baumannii [35] = test: Potentiation of rifampicin-induced antibacterial activity against multidrug resistant Acinetobacter baumannii clinical isolate 110193 at 1/4 MIC in low salt containing media by Mueller-Hinton broth based assay; type: functional, organism-based
Escherichia coli [36] = test: Potentiation of rifampicin-induced antibacterial activity against Escherichia coli clinical isolate 94393 at 1/4 MIC in low salt containing media by Mueller-Hinton broth based assay; type: functional, organism-based
Acinetobacter baumannii [37] = test: Potentiation of rifampicin-induced antibacterial activity against multidrug resistant Acinetobacter baumannii AB027 at 1/4 MIC in low salt containing media by Mueller-Hinton broth based assay; type: functional, organism-based
Acinetobacter baumannii [38] = test: Potentiation of rifampicin-induced antibacterial activity against multidrug resistant Acinetobacter baumannii clinical isolate 92247 at 1/4 MIC in low salt containing media by Mueller-Hinton broth based assay; type: functional, organism-based
Escherichia coli [39] = test: Potentiation of rifampicin-induced antibacterial activity against Escherichia coli clinical isolate 94474 at 1/4 MIC in low salt containing media by Mueller-Hinton broth based assay; type: functional, organism-based

MIC (Acinetobacter baumannii [7]) [µg/mL]	MIC (Pseudomonas aeruginosa [8]) [µg/mL]	MIC (Escherichia coli [9]) [µg/mL]	MIC (Acinetobacter baumannii [23]) [µg/mL]	MIC (Pseudomonas aeruginosa [25]) [µg/mL]	MIC (Escherichia coli [26]) [µg/mL]	Structure (SMILES)	MIC (Acinetobacter baumannii [1]) [µg/mL]	viability at 9 µM [2] [%]	fold change (FC) (Acinetobacter baumannii [3])	MIC (Escherichia coli [4]) [µg/mL]	MIC (Escherichia coli [5]) [µg/mL]	fold change (FC) (Pseudomonas aeruginosa [6])	MIC (Escherichia coli [10]) [µg/mL]	fold change (FC) (Acinetobacter baumannii [11])	fold change (FC) (Escherichia coli [12])	fold change (FC) (Escherichia coli [13])	fold change (FC) (Acinetobacter baumannii [14])	MIC (Escherichia coli [15]) [µg/mL]	fold change (FC) (Acinetobacter baumannii [16])	fold change (FC) (Escherichia coli [30])	further results
4	8	2	16	32	8	CCCCCCCCO[C@H]1[C@@H](N)[C@@H](CN=[N+]=[N-])O[C@H](OCc2ccc3ccccc3c2)[C@@H]1N	128 (≈ 281 µM)	46	>=256	16	2	8	2	64	1	1	4	128 (≈ 281 µM)	4	64	MIC (Escherichia coli [17]): 128 µg/mL (≈ 281 µM); MIC (Acinetobacter baumannii [18]): 4 µg/mL; fold change (FC) (Escherichia coli [19]): 64; MIC (Acinetobacter baumannii [20]): 16 µg/mL; fold change (FC) (Escherichia coli [21]): 16; MIC (Acinetobacter baumannii [22]): > 128 µg/mL; MIC (Acinetobacter baumannii [24]): 16 µg/mL; viability at 9 µM [27]: 31.7%; MIC (Acinetobacter baumannii [28]): 4 µg/mL; MIC (Escherichia coli [29]): 16 µg/mL; fold change (FC) (Acinetobacter baumannii [31]): 2
8	8	8	128	> 128	64	CCCCCCCCO[C@@H]1O[C@H](CN)[C@H](N)[C@H](OCc2ccc3cccnc3c2)[C@H]1N	–	–	64	–	–	2	–	–	–	–	–	–	–	32	–
16	16	16	> 128	> 128	64	CCCCCCCCO[C@@H]1O[C@H](CN)[C@H](N)[C@H](OCc2ccccc2)[C@H]1N	–	–	16	–	–	1	–	–	–	–	–	–	–	16	–

Structure (SMILES)	MIC (Acinetobacter baumannii [7]) [µg/mL]	MIC (Pseudomonas aeruginosa [8]) [µg/mL]	MIC (Escherichia coli [9]) [µg/mL]	MIC (Acinetobacter baumannii [23]) [µg/mL]	MIC (Pseudomonas aeruginosa [25]) [µg/mL]	MIC (Escherichia coli [26]) [µg/mL]	MIC (Acinetobacter baumannii [1]) [µg/mL]	viability at 9 µM [2] [%]	fold change (FC) (Acinetobacter baumannii [3])	MIC (Escherichia coli [4]) [µg/mL]	MIC (Escherichia coli [5]) [µg/mL]	fold change (FC) (Pseudomonas aeruginosa [6])	MIC (Escherichia coli [10]) [µg/mL]	fold change (FC) (Acinetobacter baumannii [11])	fold change (FC) (Escherichia coli [12])	fold change (FC) (Escherichia coli [13])	fold change (FC) (Acinetobacter baumannii [14])	MIC (Escherichia coli [15]) [µg/mL]	fold change (FC) (Acinetobacter baumannii [16])	fold change (FC) (Escherichia coli [30])	further results
NC[C@H]1O[C@@H](OCCC23CC4CC(CC(C4)C2)C3)[C@H](N)[C@@H](OCc2ccc3ccccc3c2)[C@H]1N	4	8	2	16	32	8	> 128	76	>=256	16	4	2	2	64	1	1	2	> 128	2	16	Activity (Acinetobacter baumannii [32]): inactive; Activity (Acinetobacter baumannii [33]): inactive; Activity (Escherichia coli [34]): inactive; MIC (Escherichia coli [17]): > 128 µg/mL; Activity (Acinetobacter baumannii [35]): inactive; MIC (Acinetobacter baumannii [18]): 2 µg/mL; fold change (FC) (Escherichia coli [19]): 8; Activity (Escherichia coli [36]): Active; Activity (Acinetobacter baumannii [37]): inactive; MIC (Acinetobacter baumannii [20]): 16 µg/mL; fold change (FC) (Escherichia coli [21]): 2; MIC (Acinetobacter baumannii [22]): > 128 µg/mL; MIC (Acinetobacter baumannii [24]): 16 µg/mL; viability at 9 µM [27]: 46.7%; MIC (Acinetobacter baumannii [28]): 4 µg/mL; Activity (Acinetobacter baumannii [38]): inactive; MIC (Escherichia coli [29]): 16 µg/mL; Activity (Escherichia coli [39]): inactive; fold change (FC) (Acinetobacter baumannii [31]): 1
